Assay results reported in US4297096A, “Alkyl, alkenyl, and aryl substituted triazene compounds, their salts and production thereof” (Fujisawa Pharmaceutical Co. Ltd., priority 1980, dated 1981).

Assay: Solubility
Assay type: physicochemical
[1] = Benzene, hexane and ether, crystals of Example 1
[2] = Benzene, hexane and ether, crystals of Example 2 (pure)
[3] = Chloroform, ethyl acetate, methanol and acetone, crystals of Example 1
[4] = Chloroform, ethyl acetate, methanol and acetone, crystals of Example 2 (pure)
[5] = water, crystals of Example 2 (pure)

In the case of CCCC/C=C/C=C/C=C/C=NN=NO [FR-900184], the Solubility [1] is reported as “Sparingly soluble”, the Solubility [2] is reported as “Sparingly soluble” and the Solubility [3] is reported as “Soluble”. For the same molecule, the Solubility [4] was “Soluble”, the Solubility (water, crystals of Example 1) was “Insoluble” and the Solubility [5] was “Insoluble”.
For CCC/C=C/C/C=C/C=C/C=NN=NO [FR-900190], the Solubility [1] was “Sparingly soluble”, the Solubility [2] was “Sparingly soluble” and the Solubility [3] was “Soluble”. The Solubility [4] was “Soluble”, the Solubility (water, crystals of Example 1) was “Insoluble” and the Solubility [5] was “Insoluble”.
